The values below come from patent US12529700B2, “Methods for identifying cancer” (NDSU Research Foundation, priority 2021, dated 2026).

The assay has as its system MIA PaCa-2 cells. The assay can be described thus: Gemcitabine treatment, cell viability by CCK-8 assay. The following applies: method says 20 μM for 48 hr. The format is cell-based, human. The protocol: Gemcitabine Treatment Cells were seeded in 96-well plates at a density of 10^4 cells/well. […] Cell viability was accessed by CCK-8 assay following the manufacturer's instructions. Briefly, a mixture of 10 μL of CCK-8 and 190 μL media was added into each well, and the cells were incubated for another 1 hr. The absorbance of each well was measured at 450 nm using a microplate reader. Each experiment was performed in 6 repeats.

Regarding `Nc1ccn([C@@H]2O[C@H](CO)[C@@H](O)C2(F)F)c(=O)n1` [gemcitabine], the “viability of malignant MIA PaCa-2 cells with vs without gemcitabine treatment” value is reported as “dramatic decrease in viability”.
